Consider 13 molecules from ChEMBL document CHEMBL1201862, “PubChem BioAssay data set” (2004).

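Grown in 96-well plates, cells were treated for 48 hours with each compound at five concentrations. Insufficient inhibition: endpoint recorded as highest concentration tested. GI50 marks 50% less growth.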 Calls of active or inactive are those of the source. No stated cut-off is given here; in the data, active = GI50 up to about 1.1 µM and inactive = higher.

Test in all cases: NCI tumour cell line growth inhibition, 48 h
Assay [1] relates to HT-29.
Assay [2] deals with Hs-578T.
In assay [3] the test system is RPMI-8226.
In assay [4] the test system is UACC-257.
The test system of assay [5] is OVCAR-4.
Assay [6] concerns Malme-3M.
The subject of assay [7] is M14.
Assay [8] has as its system MDA-MB-231.
Assay [9] has as its system SK-MEL-5.
Assay [10] concerns CAKI-1.
In assay [11] the test system is EKVX.
For assay [12], the system named is 786-0.
For assay [13], the system named is OVCAR-3.
The subject of assay [14] is SNB-75.
Assay [15] deals with U-251.
For assay [16], the system named is HL-60.
The subject of assay [17] is HCC 2998.

Take `O=C1/C(=C\c2ccc([N+](=O)[O-])o2)SC2NC(COc3ccc(Cl)cc3)=NN12` (configuration not stated): the GI50 was 6.05 µM (inactive) in [1]; 24.4 µM (inactive) in assay [2]; 3.21 µM (inactive) in assay [3]; 5.09 µM (inactive) in [4]; 1.87 µM (inactive) in [5]; 2.4 µM (inactive) in [6]. In addition, the GI50 in [7] was 2.31 µM (inactive); in assay [8], 3.31 µM (inactive); in [9], 12.8 µM (inactive); in assay [10], 13.1 µM (inactive); in assay [11] it was 5.83 µM (inactive); in [12], 3.4 µM (inactive). The GI50 in [13] was 6.27 µM (inactive); in assay [14] it was 15.5 µM (inactive); in assay [15], 19.3 µM (inactive); in [16] it was 2.16 µM (inactive).

As for `COc1ccc(-c2c(C#N)c(N)nc(Sc3ccccc3N)c2C#N)cc1`, the GI50 in assay [1] is 7.69 µM (inactive); in assay [2], 6.05 µM (inactive); in assay [3] it was > 75.5 µM (inactive); in [4], 39.3 µM (inactive); in assay [5], 13.6 µM (inactive); in [6] it was 10.2 µM (inactive). Further, the GI50 in assay [7] was 27.9 µM (inactive); in assay [8], 11.7 µM (inactive); in [9], 28.6 µM (inactive); in assay [10], 8.36 µM (inactive); in assay [11], 15.7 µM (inactive); in assay [17], > 43.1 µM (inactive). The GI50 in assay [12] was 4.82 µM (inactive); in [13], 22.1 µM (inactive); in assay [15] it was 13.4 µM (inactive); in assay [16], > 100 µM (inactive).

Consider `O=C(O)Cc1ccc(-n2nnc3c(=O)[nH][nH]c(=O)c32)cc1`, for which the GI50 in assay [1], in assay [3], in assay [4], in [5], in assay [6] and in assay [7] was > 100 µM (inactive) throughout. The GI50 in assay [8], in [9], in assay [10], in assay [11], in assay [17] and in [12] was > 100 µM (inactive) throughout. In addition, the GI50 in assay [13], in [15] and in assay [16] was > 100 µM (inactive) in each case.

Take `O=C1/C(=C/C=C/c2ccccc2)CCC1CNc1ccc(Br)cc1` (configuration not stated): the GI50 is > 100 µM (inactive) in [1]; > 100 µM (inactive) in [2]; 5.47 µM (inactive) in assay [3]; > 100 µM (inactive) in [4]; 57.7 µM (inactive) in assay [5]; 0.106 µM (active) in [6]. Moreover, the GI50 is 77.6 µM (inactive) in assay [7]; 23.1 µM (inactive) in assay [8]; 47.5 µM (inactive) in assay [9]; > 100 µM (inactive) in [10]; > 100 µM (inactive) in [11]; 78 µM (inactive) in assay [17]. Further, the GI50 in [12] is 82.2 µM (inactive); in assay [13], > 100 µM (inactive); in assay [15], > 100 µM (inactive); in [16], 17.1 µM (inactive).

In the case of `Cc1n[nH]c(C(F)(F)F)c1/N=N/N1CCOCC1`, the GI50 was 3.24 µM (inactive) in [1]; 13 µM (inactive) in assay [2]; 0.873 µM (active) in assay [3]; 9.77 µM (inactive) in [4]; 5.86 µM (inactive) in assay [5]; 14.9 µM (inactive) in assay [6]. The GI50 in assay [7] was 14.7 µM (inactive); in [8], 12.8 µM (inactive); in assay [9], 2.92 µM (inactive); in assay [10], 1.9 µM (inactive); in assay [11], 5.74 µM (inactive); in assay [17], 1.53 µM (inactive). The GI50 in [12] is 2.63 µM (inactive); in [13] it was 7.21 µM (inactive); in [14] it was 12.5 µM (inactive); in assay [15], 12 µM (inactive).

On to `Nc1ncnc2c1ncn2[C@H]1C=C[C@@H](NO)C1`, for which the GI50 in [2], in [3], in [4], in assay [5], in assay [6] and in assay [7] was > 100 µM (inactive) in each case. Moreover, the GI50 in [8], in [9], in assay [10], in assay [11], in assay [17] and in assay [12] was > 100 µM (inactive) each time. In addition, the GI50 in assay [13], in [14] and in [15] was > 100 µM (inactive) in each case.

On to `COc1ccc(C2Oc3c(cccc3-c3c(-c4ccc(O)cc4)oc4cc(O)cc(O)c4c3=O)C(=O)C2O)cc1O` (configuration not stated), for which the GI50 in assay [1] is > 100 µM (inactive); in assay [3], 83.2 µM (inactive); in [4], > 100 µM (inactive); in assay [5], > 100 µM (inactive); in assay [6] it was > 100 µM (inactive); in assay [7] it was > 100 µM (inactive). The GI50 in assay [8], in assay [9], in assay [11], in [17], in [12] and in assay [13] was > 100 µM (inactive) in each case. For the same molecule, the GI50 was 60.4 µM (inactive) in [14], > 100 µM (inactive) in [15] and > 100 µM (inactive) in assay [16].

For `CC(CCc1ccccc1)NCC(O)n1c(/N=N/N(C)C)nc2c1c(=O)n(C)c(=O)n2C` (configuration not stated), the GI50 in assay [1], in assay [2], in assay [3], in assay [4], in assay [5] and in assay [6] was > 100 µM (inactive) each time. In addition, the GI50 was > 100 µM (inactive) in assay [7]; > 100 µM (inactive) in [8]; 78.7 µM (inactive) in assay [9]; 88.7 µM (inactive) in [10]; > 100 µM (inactive) in assay [11]; > 100 µM (inactive) in assay [12]. Moreover, the GI50 in assay [13] was > 100 µM (inactive); in assay [14], 9.62 µM (inactive); in [15], > 100 µM (inactive); in assay [16], 66.7 µM (inactive).

Regarding `CCO/C(=N/S(=O)(=O)C(F)(F)F)N(C(C)C)C(C)C`, the GI50 in assay [1], in [2], in [3], in assay [4], in assay [5] and in [6] was > 100 µM (inactive) in each case. For the same molecule, the GI50 in [7], in assay [8], in assay [9], in [10], in assay [11] and in [12] was > 100 µM (inactive) each time. Also, the GI50 in assay [15] and in [16] was > 100 µM (inactive) each time.

Take `CC1=C(C#N)C(=C(C#N)C#N)OC1(C)Cc1ccccc1` (configuration not stated): the GI50 in assay [1] was 32.7 µM (inactive); in assay [2], 30 µM (inactive); in assay [3], 42.7 µM (inactive); in assay [4], 49.4 µM (inactive); in [5] it was 21.9 µM (inactive); in assay [7], 30.8 µM (inactive). Besides, the GI50 in assay [8] is 47.9 µM (inactive); in [9], 67.8 µM (inactive); in assay [10], 24.7 µM (inactive); in assay [11], 45.9 µM (inactive); in assay [17], 29.5 µM (inactive); in assay [12], 41.7 µM (inactive). The GI50 is 14.6 µM (inactive) in [13], > 100 µM (inactive) in assay [14] and > 100 µM (inactive) in [15].

Take `O=C(CCCl)NN=C1NCCN1`: the GI50 in assay [1], in assay [2], in assay [3], in assay [4], in [5] and in [6] was > 100 µM (inactive) throughout. The GI50 in [7], in [8], in assay [9], in [11], in assay [17] and in assay [12] was > 100 µM (inactive) throughout. Also, the GI50 in assay [13], in assay [14], in assay [15] and in [16] was > 100 µM (inactive) each time.

Turning to `CCn1c(-c2ccccc2)nc2c1C(=O)c1ccccc1C2=O`, the GI50 is 8.99 µM (inactive) in assay [1]; 27.2 µM (inactive) in [2]; 36.6 µM (inactive) in assay [3]; 3.85 µM (inactive) in assay [4]; 12.5 µM (inactive) in assay [5]; 8.81 µM (inactive) in assay [6]. For the same molecule, the GI50 in [7] is 15.4 µM (inactive); in assay [9] it was 11.2 µM (inactive); in assay [17], 18.2 µM (inactive); in [12], 84.9 µM (inactive); in assay [13], 5.89 µM (inactive); in assay [15], 29.9 µM (inactive). The GI50 in assay [16] was 18 µM (inactive).

Turning to `Nc1nc(O)c2nc(CNc3ccc(C(=O)NC(CCC(=O)O)C(=O)O)cc3)cnc2n1` (configuration not stated), the GI50 in assay [1], in [2], in [3], in assay [4], in assay [5] and in [6] was > 100 µM (inactive) throughout. Besides, the GI50 in assay [7], in assay [9], in assay [11], in assay [17], in [12] and in assay [13] was > 100 µM (inactive) throughout. The figures for the GI50 in [14] and in assay [15] were 0.9 µM (active) and > 100 µM (inactive), respectively.
